According to patent US11786507B2, “Methods of treating HIV-associated neurological disorders (HAND)” (priority 2020, dated 2023):
Entries after “also recorded” stand apart in the source; their conditions may differ.

System: iTat mice
Assay: Western blotting of SYP, PSD-95, GFAP, Iba-1 in cortex and hippocampus
Type: in vivo, mouse
Description: Doxycycline (Dox)-inducible and astrocyte-specific HIV-1 Tat-transgenic mice (iTat) were generated as previously described.^38 Wild-type (Wt, C57BL/6) and α7 nAChR knockout mice (α7^−/−, B6.129S7-Chrna^7tm1Ba/J) were purchased from the Jackson Laboratory (Bar Harbor, ME). All the animal procedures were approved by the Institutional Animal Care and Use Committee. Mice were housed with a 12-hour light and 12-hour dark photoperiod and provided water and food ad libitum. α7^−/− iTat mice were generated by cross breeding iTat mice with α7^−/− mice. α7^−/− genotyping was slightly modified with the JumpStart™ Taq DNA Polymerase-based PCR (JumpStart™ Taq DNA Polymerase, Sigma, catalog #D9307). […] Mice of 10-14 weeks old with body weights of 20-35 grams were fed with Dox-containing diet (0.625 g/kg, Envigo, catalog #TD.01306) as stated.
A RIPA buffer (50 mM Tris.HCl, pH 8.0, 280 mM NaCl, 0.5% NP-40, 1% C24H39NaO4, 0.2 mM EDTA, 2 mM EGTA and 10% glycerol) supplemented with protease inhibitors (Millipore-Sigma, catalog #S8830) and phosphatase inhibitors (Millipore-Sigma, catalog #4906845001) was used to lyse the brain tissues and cultured cells with brief sonication on ice. Protein concentrations of the lysates were determined using a Bio-Rad DC protein assay kit (Bio-Rad, catalog #5000111). Lysates were denatured in the SDS-PAGE loading buffer at 100° C. for 10 min, then electrophoretically separated by 8-15% SDS-PAGE, blotted onto 0.45 μm polyvinylidene fluoride membrane (GE Healthcare Life Sciences, catalog #10600023), and probed using appropriate antibodies against PSD-95 (Abcam, catalog #ab18258, and 1:2000 dilution), SYP (Abcam, catalog #ab8049, and 1:1000 dilution), Iba-1 (Wako, catalog #016-20001, and 1:500 dilution) and GFAP (DAKO, catalog #z330s, and 1:2000 dilution), p-p38 (Santa Cruz, catalog #sc-166182, and 1:1000 dilution), p38 (Santa cruz, catalog #sc-535, and 1:1000 dilution), p-JNK (Santa cruz, catalog #sc-6254, and 1:1000 dilution), JNK (Santa cruz, catalog #sc-571, and 1:1000 dilution), p-ERK (Santa cruz, catalog #sc-7383, and 1:1000 dilution), and ERK (Santa cruz, catalog #sc-514302, and 1:1000 dilution), α7 nAChR (Alomone, catalog #ANC-007, and 1:1000 dilution) and β-actin (Sigma-Aldrich, catalog #A1978, and 1:2000 dilution). A Bio-Rad ChemicDoc imaging system (Bio-Rad) and Image J were used for image capturing and analysis, respectively. […]

[1] = CORT, PAM 15 mg/kg/day s.c. vs DMSO

`COc1cc(OC)c(NC(=O)Nc2cc(C)on2)cc1Cl` [PAM, 1-(5-chloro-2,4-dimethoxy-phenyl)-3-(5-methyl-isoxazol-3-yl)-urea] was tested, and the GFAP expression [1] was “completely reversed the increases; also recorded: decreased GFAP in iTat mice”, the Iba-1 expression [1] was “decreased Iba-1 in both Wt and iTat mice” and the PSD-95 expression [1] was “significant increases of PSD-95 in Wt mice and even more in iTat mice”. The SYP expression [1] was “no changes”, the “SYP and GFAP expression” value (HIP, DMSO- vs PAM-treated mice) was “no differences of SYP and GFAP” and the PSD-95 expression (HIP, PAM 15 mg/kg/day s.c. vs DMSO) was “increased PSD-95 in both Wt and iTat mice”.
